Key:
Conditions in all cases: 72 h
[1] = tested on: ML-2; assay: cell viability (% survival relative to DMSO control, bortezomib = 0%); higher = less cytotoxic
Summary of the method: (§1)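 Percent survival figures are means of duplicate wells. They were obtained by CellTiter-Glo luminescence after 10 AML and 5 CML cell lines spent 72 h at 37 °C with 5% CO2 in 384-well plates with compounds at 1, 10, 100, 1000 or 10000 nM. Vehicle was set to 100% and a 10 µM positive control to 0%.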

[2] = tested on: KCL-22; assay: as above
Summary of the method: as §1

[3] = tested on: Mono-Mac-6; assay: as above
Summary of the method: as §1

[4] = tested on: K-562; assay: as above
Summary of the method: as §1

[5] = tested on: HEL; assay: as above
Summary of the method: as §1

[6] = tested on: SHI-1; assay: as above
Summary of the method: as §1

[7] = tested on: BV-173; assay: as above
Summary of the method: as §1

[8] = tested on: KG-1; assay: as above
Summary of the method: as §1

[9] = tested on: HL-60; assay: as above
Summary of the method: as §1

[10] = tested on: LAMA-84; assay: as above
Summary of the method: as §1

[11] = tested on: MV4-11; assay: as above
Summary of the method: as §1

[12] = tested on: HL-60; assay: area under dose-response curve (viability, 1 nM-10 uM) (fraction (0-1)); higher = more sensitive
Summary of the method: (§2)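 In 384-well plates, the full library was rescreened in duplicate on HL-60 cells in RPMI 1640 with 10% FBS, at 1–10,000 nM in five tenfold concentrations, for 72 h at 37 °C, 5% CO2. Each run also held DMSO or 100 nM of one of three metabolic inhibitors. Viability was measured by CellTiter-Glo and normalised to DMSO wells and to wells with proteasome inhibitor, present at 10 μM. Any area under the curve comes from four-parameter log-logistic fitting with drc and PharmacoGx.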

[13] = tested on: ML-2
Summary of the method: (§3)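 Fifteen myeloid leukaemia lines were incubated for 72 h at 37 °C with 5% CO2 across five tenfold doses from 1 to 10,000 nM, in duplicate. ATP luminescence was normalised to vehicle and to a positive control at 10 µM and fitted with a four-parameter log-logistic model. The IC50 came from these dose–response fits.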

[14] = tested on: KCL-22
Summary of the method: as §3

[15] = tested on: Mono-Mac-6
Summary of the method: as §3

[16] = tested on: MOLM-13
Summary of the method: as §3

[17] = tested on: K-562
Summary of the method: as §3

[18] = tested on: HEL
Summary of the method: as §3

[19] = tested on: SHI-1
Summary of the method: as §3

[20] = tested on: BV-173
Summary of the method: as §3

[21] = tested on: KG-1
Summary of the method: as §3

[22] = tested on: THP-1
Summary of the method: as §3

[23] = tested on: HL-60
Summary of the method: as §3

[24] = tested on: NOMO-1
Summary of the method: as §3

[25] = tested on: LAMA-84
Summary of the method: as §3

[26] = tested on: KU-812
Summary of the method: as §3

[27] = tested on: MV4-11
Summary of the method: as §3

[28] = tested on: HL-60; assay: cell viability (% survival relative to DMSO control); higher = less cytotoxic
Summary of the method: as §2

O=c1[nH]c(=O)n([C@H]2C[C@H](O)[C@@H](CO)O2)cc1I [Idoxuridine]
Conditions | area under dose-response curve, co-treatment: AZD3965 100 nM | area under dose-response curve, co-treatment: DMSO vehicle | area under dose-response curve, co-treatment: GSK2194069 100 nM | area under dose-response curve, co-treatment: pictilisib 100 nM | cell viability, 1 nM [%] | cell viability, 10 nM [%] | cell viability, 100 nM [%] | cell viability, 1000 nM [%] | cell viability, 10000 nM [%]
[1] | – | – | – | – | 98.1 | 92.4 | 105 | 83.4 | 28.2
[2] | – | – | – | – | 103 | 96.7 | 101 | 48.9 | 26.3
[3] | – | – | – | – | 96 | 91.4 | 93.5 | 76 | 52.1
[4] | – | – | – | – | 85.6 | 102 | 99.3 | 73.3 | 47.1
[5] | – | – | – | – | 93.8 | 90.5 | 92 | 59.7 | 36.1
[6] | – | – | – | – | 102 | 99.6 | 99.3 | 95.2 | 60.3
[7] | – | – | – | – | 102 | 86.7 | 97.6 | 15.6 | 1.22
[8] | – | – | – | – | 101 | 108 | 105 | 84.1 | 63.3
[9] | – | – | – | – | 113 | 105 | 102 | 95 | 84
[10] | – | – | – | – | 102 | 88.8 | 103 | 87 | 47.1
[11] | – | – | – | – | 103 | 89.2 | 92.6 | 63.6 | 21.7
[12] | < 0.0301 | < 0.0301 | < 0.0301 | < 0.0301 | – | – | – | – | –

Conditions | IC50 (cell viability) [µM]
[13] | 2.51
[14] | 0.755
[15] | 6.63
[16] | 4.76
[17] | 4.34
[18] | 1.47
[19] | > 10
[20] | 0.464
[21] | > 10
[22] | > 10
[23] | > 10
[24] | > 10
[25] | 5.59
[26] | > 10
[27] | 1.63

cell viability [%], [28]
Conditions | 0.001 µM | 0.01 µM | 0.1 µM | 1 µM | 10 µM
co-treatment: AZD3965 100 nM | 94.7 | 102 | 98.5 | 97.9 | 102
co-treatment: DMSO vehicle | 99.9 | 100 | 99.7 | 94.9 | 103
co-treatment: GSK2194069 100 nM | 95.3 | 100 | 101 | 98.6 | 86.4
co-treatment: pictilisib 100 nM | 84.1 | 95.8 | 97.3 | 93.8 | 90

CC1Cc2ccccc2N1NC(=O)c1ccc(Cl)c(S(N)(=O)=O)c1 (configuration not stated) [Indapamide]
Conditions | area under dose-response curve, co-treatment: AZD3965 100 nM | area under dose-response curve, co-treatment: DMSO vehicle | area under dose-response curve, co-treatment: GSK2194069 100 nM | area under dose-response curve, co-treatment: pictilisib 100 nM | cell viability, 1 nM [%] | cell viability, 10 nM [%] | cell viability, 100 nM [%] | cell viability, 1000 nM [%] | cell viability, 10000 nM [%]
[1] | – | – | – | – | 94.1 | 98.2 | 97.5 | 93.8 | 100
[2] | – | – | – | – | 89.3 | 105 | 77.6 | 102 | 105
[3] | – | – | – | – | 99.6 | 112 | 112 | 110 | 90.9
[4] | – | – | – | – | 112 | 97.3 | 120 | 100 | 102
[5] | – | – | – | – | 107 | 112 | 101 | 105 | 103
[6] | – | – | – | – | 92.5 | 93.8 | 113 | 102 | 98
[7] | – | – | – | – | 116 | 93.9 | 95.3 | 99.7 | 91.9
[8] | – | – | – | – | 86.7 | 105 | 101 | 97.3 | 101
[9] | – | – | – | – | 87.7 | 95 | 81.6 | 93 | 102
[10] | – | – | – | – | 92.2 | 111 | 98.1 | 94.3 | 91.3
[11] | – | – | – | – | 111 | 98.4 | 102 | 97.8 | 99.4
[12] | < 0.0301 | < 0.0301 | < 0.0301 | < 0.0301 | – | – | – | – | –

Conditions | IC50 (cell viability) [µM]
[13] | > 10
[14] | > 10
[15] | > 10
[16] | > 10
[17] | > 10
[18] | > 10
[19] | > 10
[20] | > 10
[21] | > 10
[22] | > 10
[23] | > 10
[24] | > 10
[25] | > 10
[26] | > 10
[27] | > 10

cell viability [%], [28]
Conditions | 0.001 µM | 0.01 µM | 0.1 µM | 1 µM | 10 µM
co-treatment: AZD3965 100 nM | 103 | 104 | 99.4 | 103.1 | 95.9
co-treatment: DMSO vehicle | 98.1 | 104 | 101 | 99.5 | 103.2
co-treatment: GSK2194069 100 nM | 103.4 | 107.5 | 94.7 | 98.3 | 99.6
co-treatment: pictilisib 100 nM | 100 | 112 | 97.14 | 92.8 | 98.4

NS(=O)(=O)c1ccc(S(=O)(=O)Nc2cccc3c(Cl)c[nH]c23)cc1 [Indisulam]
Conditions | area under dose-response curve, co-treatment: AZD3965 100 nM | area under dose-response curve, co-treatment: DMSO vehicle | area under dose-response curve, co-treatment: GSK2194069 100 nM | area under dose-response curve, co-treatment: pictilisib 100 nM | cell viability, 1 nM [%] | cell viability, 10 nM [%] | cell viability, 100 nM [%] | cell viability, 1000 nM [%] | cell viability, 10000 nM [%]
[1] | – | – | – | – | 99.1 | 104 | 97.9 | 35.2 | 3.51
[2] | – | – | – | – | 102 | 104 | 87.4 | 58.6 | 19
[3] | – | – | – | – | 101 | 95.3 | 80.3 | 48.2 | 11.1
[4] | – | – | – | – | 113 | 101 | 89.2 | 65.4 | 36.7
[5] | – | – | – | – | 103 | 98.1 | 95.8 | 95.9 | 34.7
[6] | – | – | – | – | 96.8 | 101 | 97.4 | 65.2 | 26.8
[7] | – | – | – | – | 108 | 87.3 | 110 | 46.6 | 9.34
[8] | – | – | – | – | 139 | 129 | 173 | 50.5 | 15.5
[9] | – | – | – | – | 107 | 107 | 85.8 | 97.2 | 37.1
[10] | – | – | – | – | 94.3 | 89 | 111 | 55.2 | 21.9
[11] | – | – | – | – | 99.4 | 84.3 | 56.2 | 0.62 | 0.0378
[12] | < 0.0301 | < 0.0301 | < 0.0301 | < 0.0301 | – | – | – | – | –

Conditions | IC50 (cell viability) [µM]
[13] | 0.703
[14] | 1.08
[15] | 0.796
[16] | 0.619
[17] | 1.43
[18] | 7
[19] | 1.28
[20] | 0.856
[21] | 0.932
[22] | > 10
[23] | 7.32
[24] | 1.09
[25] | 0.918
[26] | 0.54
[27] | 0.128

cell viability [%], [28]
Conditions | 0.001 µM | 0.01 µM | 0.1 µM | 1 µM | 10 µM
co-treatment: AZD3965 100 nM | 97.4 | 97.92 | 98.8 | 110 | 89.8
co-treatment: DMSO vehicle | 96.4 | 95 | 101 | 104 | 92.2
co-treatment: GSK2194069 100 nM | 101 | 101 | 100 | 105 | 90.9
co-treatment: pictilisib 100 nM | 110 | 95.2 | 104 | 112.7 | 77.3

From the supplement of paper PMC8671470
